Experiments:
Assay type in all cases: cell-based, human
[1] = system: ATSCs; experiment: Colony forming unit (CFU) assay; conditions: 5 ng/ml selenium 3 days, colonies counted after 15 days, vs control ATSCs
Experimental: Also, the proliferation efficiency of colony forming units (CFU) in the selenium-treated cells was evaluated. […] First, the ATSCs were seeded in 10 cm dishes at a density of 5×10^5 and cultured in a 2% FBS-containing α-MEM medium for 8 hours at 37° C. in a CO2 incubator. […] After 15 days, the cells were fixed with 4% paraformaldehyde (PFA) for 30 minutes at room temperature and stained with 0.1% toluidine blue dissolved in 1% PFA. The proliferation efficiency of the CFU was evaluated via visual colony counts.

[2] = system: ATSCs; experiment: Telomerase activity of selenium-treated ATSCs; conditions: 5 ng/ml selenium for 3 days
Text: An increase in telomerase activity is a characteristic of a stem cell, and a decrease in telomerase activity indicates differentiation of the cells.

[3] = system: ATSCs; experiment: Prolonged culture / proliferation lifespan
Text: During prolonged culture periods, the population of control ATSCs underwent a progressive reduction in proliferation potential. The cells finally underwent senescence after 21 to 23 passages (90 to 100 days in culture). At the end of the proliferation lifespan, the cells were flattered and larger in morphology in a monolayer similar to that described for senescent fibroblasts. […] The rate of proliferation of selenium-treated ATSCs resembled that of the control ATSCs.

[4] = system: ATSCs; experiment: Molecular marker expression by real time RT-PCR and Western blot
Text: The expression of molecular markers in both the control ATSCs and the selenium-treated cells was verified via real time RT-PCR and Western blot analysis.

[5] = system: ATSCs; experiment: Western blot of proliferation-related signaling proteins; conditions: time-dependent
[6] = system: ATSCs; experiment: ROS generation (DCF fluorescence)
[7] = system: ATSCs; experiment: Oligonucleotide microarray analysis of gene expression; conditions: vs control ATSCs
Experimental: To confirm the pattern of gene expression, oligonucleotide microarray analysis was performed.

[8] = system: Rex1, Nanog and Oct4 promoter regions; experiment: Bisulfite sequencing of CpG methylation on stemness gene promoter regions
Experimental: Also, a bisullipide sequencing analysis was performed in order to establish 5′-3′ CpG methylation profiles across a proximal promoter, a proximal enhancer and an early transcription start site (TSS) of each gene.
Genomic DNA of ATSCs was purified by phenol/chloroform/isoamylalcohol extraction, and chloroform extraction once, and then was precipitated with ethanol. The DNA was dissolved in distilled water. Bisullipide conversion was performed using EZ DNA Methylation-Gold Kit (Zymo Research, USA), as described by a manufacturer. That is, unmethylated cytosines on the DNA were converted into uracils via the heat-denaturation of DNA with specifically designed CT conversion reagent. The DNA was then desulphonated and subsequently cleaned and eluted. The bisulfite-modified DNA was then immediately used for PCR or stored at −20° C. or below. The converted DNA was amplified via PCR using primers designed with MethPrimer (http://www.urogene.org/methprimer). The PRC was conducted in a MyGenie 96 Gradient Thermal Block (Bioneer, Daejeon, South Korea) according to the following protocol, including 95° C. for 15 minutes, 40 cycles of 95° C. for 20 seconds, 43 to 58° C. for 40 seconds, and 72° C. for 30 seconds, elongation at 72° C. for 10 minutes and soaking at 4° C. After electrophoresis on 1.5% agarose gel, the remaining PCR products were cloned into bacteria (DH5α) by the pGEM T-Easy Vector System I (Promega, Madison, Wis., USA). The DNA extracted from bacterial clones were analyzed via sequencing with M13 reverse primers using the ABI 3730XL capillary DNA sequencer (Applied Biosystems, Foster City, Calif., USA), and represented as rows of circles, each circle denoting the methylation status of CpG.

[9] = system: ATSCs; experiment: Cell scraped wound model assay
Experimental: Cells were seeded into 60 mm culture dishes, and a straight line was lightly carved across the center, outer and bottom surface of each dish with a scalpel. The ATSCs were incubated overnight in a serum-free medium, scraped from one side of the marked line, and washed three times with a medium to remove loose or dead cells. […] The control dish was also scratched in the same manner as described above, and incubated in a selenium-free medium. Cells migrated across the marked reference line were photographed under a phase contrast microscope.

[10] = system: ATSCs; experiment: Osteogenic and adipogenic differentiation in vitro
Experimental: To estimate the differentiation potential of selenium-treated ATSCs, osteogenic and adipogenic differentiation potential was evaluated.
In the present embodiment, it was confirmed that the selenium-treated ATSCs accumulated significant amounts of calcium and lipid droplets after only one week of osteogenetic and adipogenetic induction in vitro (FIG. 17). Differences in formation of bone nodules and lipid droplets between the control and selenium-treated ATSCs were estimated by calculating the number of stained bone nodules and lipid droplets in 25 randomly selected fields (regions).

[11] = system: ATSCs; experiment: Neural differentiation in vitro
Text: In an attempt to estimate differentiation potential of selenium-treated ATSCs into neural cells in vitro, low levels of Nestin protein expression were detected in the selenium-treated ATSCs after the induction of differentiation (FIG. 19). After neural differentiation, the selenium-treated ATSCs expressed higher levels of Tuj, GFAP, MAP2ab and NF160 than the control ATSCs (FIG. 19). […] It means that there is a difference in differential potential between the control ATSCs and the selenium-treated ATSCs.

[12] = system: ATSCs; experiment: Differentiation into insulin-producing cells; conditions: after beta-cell-like differentiation, vs differentiated control ATSCs
Experimental: Moreover, for differentiation of cells similar to beta cells, cells were cultured in “N2 media-NA” containing DMEM/F12 (Gibco-Invitrogen) supplemented with 10 mM nicotinamide, ITS (1:50), B27 (1:50; Invitrogen) and 15% FBS. After 24-hour culture, the medium was changed with a high glucose (3500 mg/L)-containing differentiation medium for 2 weeks. After the induction of differentiation, double immunocytochemistry was conducted using insulin (1:800; Sigma) and c-peptide (1:100; Milipore) antibodies.

Structure (SMILES): O=[Se]([O-])[O-].[Na+].[Na+] [selenium, sodium selenite]
- cell proliferation increase by CFU levels [1]: at least 1.8 times
- increase in telomerase activity [2]: 2 fold
- passages of continuous growth [3]: > 21 passages
- duration of continuous growth ([3]; control ATSCs senescent after 21 to 23 passages): more than 3 months
- acetylation of Histones 3 and 4 [4]: attenuated
- expression of GFAP, Tuj, p53 and p21 [4]: downregulation
- expression of Nestin and c-Myc [4]: induced expression
- Rex1 expression ([4]; vs control ATSCs): significantly increased
- expression of stemness and functional genes (Rex1, Nanog, Oct4, Sox2, Runx3, CDK1, CDK2, Nestin, VEGF, FGFR1) ([4]; vs control ATSCs): overexpression
- activation of PI3K and downstream mediators (p-Rac, p-c-Raf, p-MEK, p-ERK, p-Stat3, p-Akt) ([5]; 0, 3, 6 and 12 hours): significant activation
- concentration of apoptosis-related protein p-SAPK/JNK [5]: reduced
- increased fluorescence intensity of DCF (ROS generation) [6]: compensated
- upregulation of cell proliferation-associated genes [7]: 42%
- Nanog promoter methylation ([8]; third region (-86 to +66) to the TSS): effectively demethylated
- Oct4 promoter CpG methylation ([8]; third region, control ATSCs 65.7%): 30.3%
- Rex1 region CpG methylation ([8]; third region, control ATSCs 72.2%): 42.2%
- migration of ATSCs across the reference line ([9]; 5 ng/ml selenium, 24 hours, vs control ATSCs): three times higher
- expression of migration-associated factors MMP1, MMP3, SDF1, VEGF and CXCR4 ([9]; after selenium treatment): increases in expression
- lipid droplets vs control ATSCs ([10]; adipogenic induction, eluted dye quantitative assay): six-fold more
- level of osteonectin, RXR and osteopontin mRNA ([10]; during osteogenesis): significant increases
- levels of AP and PPAR-γ mRNAs ([10]; in adipogenesis): significant increases
- bone nodules vs control ATSCs ([10]; osteogenic induction, eluted dye quantitative assay): Five-fold more
- acetyl-histones 3 and 4 (Western blot) ([11]; after neural differentiation): overexpressed
- expression of Tuj, GFAP, MAP2ab and NF160 ([11]; after neural differentiation, vs control ATSCs): higher levels
- neural differentiation (MAP2ab/total cells) ([11]; control ATSCs 2.4%): 9.0 % of total cells
- insulin secretion with C-peptide [12]: secreted a significant amount of insulin

From US20100233131A1 (PUSAN NATIONAL UNIVERSITY INDUSTRY-UNIVERSITY COOP, priority 2008, published 2010)
